Peptide text beside a SMILES is read from it. * marks the point of attachment. Palmitoyl = CCCCCCCCCCCCCCCC(=O)*
Assays:
HEK 293 cells [1] = assay: Cell proliferation, MTT assay, HEK 293 cells without receptor; format: cell-based; conditions: 10^−6 M
Source text: Each bar corresponds to the mean ± SEM obtained from three independent experiments conducted in triplicate.

HEK 293 cells [2] = tested on: HEK 293 cells
Description: Pepducins are composed of a synthetic peptide, mimicking an intracellular GPCR loop, to which a hydrophobic moiety, most commonly the fully saturated C16 fatty acid palmitate, is conjugated at their N-termini ([39]). […] The second pepducin ([Trp^1, Leu^2]hUT-Pep3) comprises the hUT ICL3 sequence; however, the first two N-terminal amino acids were replaced by the corresponding residues from rat UT ICL3 (-Arg-Arg-in hUT and -Trp-Leu- in rUT).
Toxicity of hUT-derived pepducins was evaluated using (A) MTT or (B) LDH assays in HEK 293-hUT cells.
HEK 293 cells were seeded at a density of 2 × 10^4 cells/well in 96 well-plates and cultured at 37 °C for 24 h. Cells were then incubated in serum-free media with hUT-derived pepducins at various concentrations (10^−8 M–10^−4 M). Viability was assessed with an MTS kit (CellTiter 96 AQueous, Promega) and a microplate reader (MTX^TC Revelation, Dynex Tech) in order to determine the optical density related to the conversion of MTS into purple-colored water-soluble formazan. Positive control (cells treated with 10% DMSO) and negative control (nontreated cells) were included in each experiment. Results were expressed as the percentage of control (nontreated cells). The presence of lactate dehydrogenase (LDH), released in the culture medium from dead cells, was also determined using a commercial LDH kit (BioVision). Positive control (cells treated with lysis buffer) and negative control (nontreated cells) were included in each experiment. Results were expressed as the percentage of the maximum LDH release following cell lysis.

Circular dichroism = format: physicochemical; conditions: peptide 0.2 mg mL^−1, 20 °C
Description: Circular dichroism (CD) analyses were performed in a JASCO J-815 (JAPAN Spectroscopy & Chromatography Technology) spectropolarimeter coupled to a temperature controller Peltier. Samples were dissolved at 0.2 mg mL^−1 in either water, 0.5 mg mL^−1 DPC (dodecylphophocholine), 0.1 mg mL^−1 SDS (sodium dodecyl sulfate), or TFE (2,2,2-trifluoroethanol) aqueous solutions at concentrations of 20%, 50%, and 80%. The CD spectra were recorded in the measured range of 200–250 nm using a scan speed of 50 nm min^−1, and the baseline was corrected by subtraction of the solvent spectrum. The temperature was set to 20 °C.

hUT = molecular target: T1, hUT (Homo sapiens, UniProt Q9UKP6); assay: β-arrestin 2 conformational change, BRET biosensor, HEK 293-hUT cells; format: cell-based; parameters: expressed in transfected cells; conditions: 15 min at RT
T1 sequence (Q9UKP6 1-389): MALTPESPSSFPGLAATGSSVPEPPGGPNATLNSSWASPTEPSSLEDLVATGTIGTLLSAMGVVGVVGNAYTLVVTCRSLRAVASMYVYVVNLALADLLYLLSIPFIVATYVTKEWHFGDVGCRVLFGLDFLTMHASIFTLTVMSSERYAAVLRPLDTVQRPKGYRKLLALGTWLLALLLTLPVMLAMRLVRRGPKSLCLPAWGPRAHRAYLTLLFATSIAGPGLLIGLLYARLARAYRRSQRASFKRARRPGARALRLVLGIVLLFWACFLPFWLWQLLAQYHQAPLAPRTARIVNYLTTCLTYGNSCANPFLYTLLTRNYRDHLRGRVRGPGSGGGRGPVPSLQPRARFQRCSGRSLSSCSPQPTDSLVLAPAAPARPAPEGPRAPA
Description: Figure 6 Signaling signature of hUT-pepducins following hUT receptor activation. […] Each curve represents mean ± SEM of at least three independent concentration-response experiments performed in triplicate.
HEK 293-hUT cells were grown in DMEM culture media supplemented with 10% foetal bovine serum, HEPES, sodium pyruvate, and G418 (200 μg mL^−1). Passages were performed when cells reached 80% of confluency. Cells were initially plated in 96-well plates at a density of 10,000 cells/well. The following day, the medium is replaced with DMEM culture media supplemented with 2.5% foetal bovine serum (FBS), and 12 h later, cells were transiently transfected with 25 ng/well of a Gq-polycistronic, 25 ng/well of a G12-polycistronic BRET sensor, 25 ng/well of a G13-polycistronic BRET sensor, 2.5 ng/well pIRESB RLucII-ERK-NLS-GFP BRET sensor, 2.5 ng β-arrestin 1-polycistronic BRET sensor, or 2.5 ng β-arrestin 2-polycistronic BRET sensor using Lipofectamine2000 at a ratio of 3:1 (Lipofectamine/plasmid DNA) in serum-free Opti-MEM ([44], [81]). Sixteen hours posttransfection, medium was replaced with DMEM supplemented with 10% FBS, HEPES, sodium pyruvate and G418 (200 μg mL^−1) and cell growth was resumed for another 16 h. Cells were washed with 150 μl PBS solution supplemented with 0.1% of glucose and then incubated with 80 μl of this solution for 2 h. Then, to evaluate Gq and G12 activation, 10 μl of a 1/20 dilution (diluted before use) of coelenterazine 400A (stock at 1 mM in ethanol) in Kreb's buffer and 10 μl of the 10× appropriate concentration of peptide were added, and the luminescence was evaluated with an Infinite M1000 PRO. […] Readings were performed after 5 min using an Infinite M1000 PRO. Filters were set at 410 nm and 515 nm for detecting the Renilla luciferase II (RlucII, donor) and green fluorescent protein 10 (GFP10, acceptor) light emission, respectively. BRET ratio was determined by calculating the ratio of the light emitted by GFP10 over the light emitted by the RlucII.

Row | Compound | HEK 293 cell proliferation in absence of receptor (HEK 293 cells [1]) | effect on cell viability at 10^−4 M (HEK 293 cells [2]) | effect on cell viability up to 10^−5 M (HEK 293 cells [2]) | CD conformation in SDS (Circular dichroism; 0.1 mg mL^−1 SDS) | CD conformation in DPC (Circular dichroism; 0.5 mg mL^−1 DPC) | CD conformation in TFE (Circular dichroism; TFE 80%) | CD conformation in water (Circular dichroism; water) | EC50 (hUT; mean ± SEM, n = 3–5, read-out: β-arrestin 2 pEC50 (converted)) [nM] | Emax (hUT; percentage of the activation induced by hUII (10^−6 M), mean ± SEM, n = 3–5) [%] | Emax at 1 µM (hUT; at 10^−6 M, percentage of the activation induced by hUII (10^−6 M), read-out: β-arrestin 2, maximum efficacy at 10^−6 M) [%]
1 | CC(C)[C@H](NC(=O)[C@@H]1CSSC[C@H](NC(=O)[C@H](CC(=O)O)NC(=O)[C@@H]2CCCN2C(=O)[C@@H](NC(=O)[C@@H](N)CCC(=O)O)[C@@H](C)O)C(=O)N[C@@H](Cc2ccccc2)C(=O)N[C@@H](Cc2c[nH]c3ccccc23)C(=O)N[C@@H](CCCCN)C(=O)N[C@@H](Cc2ccc(O)cc2)C(=O)N1)C(=O)O [hUII, urotensin II, reference compound] | completely abrogated |  |  |  |  |  |  |  |  | 
2 | CCCCCCCCCCCCCCCC(=O)N[C@@H](Cc1c[nH]c2ccccc12)C(=O)N[C@@H](CC(C)C)C(=O)N[C@@H](CO)C(=O)N[C@@H](CCC(N)=O)C(=O)N[C@@H](CCCNC(=N)N)C(=O)N[C@@H](C)C(=O)N[C@@H](CO)C(=O)N[C@@H](Cc1ccccc1)C(=O)N[C@@H](CCCCN)C(=O)N[C@@H](CCCNC(=N)N)C(=O)N[C@@H](C)C(=O)N[C@@H](CCCNC(=N)N)C(=O)N[C@@H](CCCNC(=N)N)C(N)=O [[Trp^1, Leu^2]hUT-Pep3] (Palmitoyl-WLSQRASFKRARR-NH2) | completely abrogated | as cytotoxic as unmodified hUT-Pep3 at 10^−7 M | did not significantly affect HEK 293 cell viability | β-sheet conformation (lower peak at 216 nm) | less structured α-helix conformation | fold as an α-helix (dark green, TFE 80%, lower peaks at 205 and 216 nm) | nonstructured shape (random coil) | 18.2 | 19 ± 3 | 
3 | CCCCCCCCCCCCCCCC(=O)N[C@@H](CCCNC(=N)N)C(=O)N1CCC[C@H]1C(=O)N[C@@H](CC(C)C)C(=O)N[C@@H](CC(=O)O)C(=O)N[C@H](C(=O)N[C@H](C(=O)N[C@@H](CCC(N)=O)C(=O)N[C@@H](CCCNC(=N)N)C(=O)N1CCC[C@H]1C(=O)N[C@@H](CCCCN)C(=O)NCC(=O)N[C@@H](Cc1ccc(O)cc1)C(N)=O)C(C)C)[C@@H](C)O [hUT-Pep2] (Palmitoyl-RPLDTVQRPKGY-NH2) |  | as cytotoxic as unmodified hUT-Pep3 at 10^−7 M | did not significantly affect HEK 293 cell viability |  |  |  |  |  |  | ~15

Reference: article PMC8424217 (The Journal of Biological Chemistry, 2021)
